Drawing on US20050197350A1, “Novel quinoline, tetrahydroquinazoline, and pyrimidine derivatives and methods of treatment related to the use thereof” (TAISHO PHARMACEUTICAL CO., LTD., priority 2003, published 2005), this text covers IC50 for 13 molecules.

In the assay the target is MCH receptor (Homo sapiens, UniProt Q99705). The assay can be described thus: High throughput functional screening FLIPR/FDSS6000 (intracellular Ca2+ evoked by MCH). Format: cell-based. The conditions noted are these: FLIPR/FDSS, antagonist activity vs 50 nM MCH, class by percent of control at 10^−7 M or IC50, read-out: class. The procedure, abridged:
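For antagonist testing, compound-treated cells (30 min, 37 °C) were stimulated with 50 nM MCH and intracellular Ca2+ followed by Fluo4 fluorescence on FLIPR/FDSS6000. Receptor was a constitutively active, non-endogenous MCH receptor; dye loading 4 μM Fluo4-AM, 1 h, 37 °C.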

Counter-ions that a name gives are not always drawn. Like-named read-outs stand apart in the source and are kept apart here. Where only a bound is given, the exact number is not on record here.

For `Cc1cc(N[C@H]2CC[C@@H](NC(=O)c3ccc(Cl)c(F)c3)CC2)nc2ccccc12` [Example 3168, 4-Chloro-3-fluoro-N-[cis-4-(4-methyl-quinolin-2-ylamino)-cyclohexyl]-benzamide hydrochloride], where the note is “table after the classification”, the IC50 was under 50 nM.
`Cn1cc([N+](=O)[O-])cc1C(=O)N[C@H]1CC[C@@H](Nc2ccc3ccccc3n2)CC1` [Example 3042, 1-Methyl-4-nitro-1H-pyrrole-2-carboxylic acid [cis-4-(quinolin-2-ylamino)-cyclohexyl]-amide hydrochloride]: where the note is “table after the classification”, the IC50 is under 50 nM.
As for `Cc1cnc(N[C@H]2CC[C@@H](NC(=O)[C@@H]3C[C@H]3c3ccc(Cl)cc3)CC2)nc1N(C)C` (relative stereo) [Example 3316, trans-2-(4-chlorophenyl)-N-(cis-4-{[4-(dimethylamino)-5-methylpyrimidin-2-yl]amino}cyclohexyl)-cyclopropanecarboxamide], the IC50 is under 50 nM.
As for `CN(C)c1nc(N[C@H]2CC[C@@H](NC(=O)c3ccc4nonc4c3)CC2)nc2c1CCCC2` [Example 3111, Benzo[2,1,3]oxadiazole-5-carboxylic acid-[cis-4-(4-dimethylamino-5,6,7,8-tetrahydro-quinazolin-2-ylamino)-cyclohexyl]-amide hydrochloride], the IC50 (table after the classification) was under 50 nM.
`Cc1cc(N[C@H]2CC[C@@H](C(=O)N[C@@H](C)c3ccccc3C(F)(F)F)CC2)nc2ccccc12` [Example 3314, cis-4-[(4-methylquinolin-2-yl)amino]-N-{(1S)-1-[2-(trifluoromethyl)phenyl]ethyl}cyclohexanecarboxamide]: the IC50 was under 50 nM.
Turning to `Cc1cc(N(C)C)nc(N[C@H]2CC[C@@H](NC(=O)c3cccnc3S(=O)(=O)c3ccc(Cl)cc3)CC2)n1` [Example 3371, 2-[(4-chlorophenyl)sulfonyl]-N-(cis-4-{[4-(dimethylamino)-6-methylpyrimidin-2-yl]amino}cyclohexyl)nicotinamide], the IC50 is over 200 nM.
As to `CNc1cc(N[C@H]2CC[C@@H](NCCc3ccc(Br)cc3OC(F)(F)F)CC2)nc2ccccc12` [Example 2, N^2-{cis-4-[2-(4-Bromo-2-trifluoromethoxy-phenyl)-ethylamino]-cyclohexyl}-N^4-methyl-quinoline2,4-diamine dihydrochloride], the IC50 (table after the classification) was in the range of 50 to 200 nM.
In the case of `Cc1cc(N[C@H]2CC[C@@H](NC(=O)c3cncc(Br)c3)CC2)nc2ccccc12` [Example 3185, 5-Bromo-N-[cis-4-(4-methyl-quinolin-2-ylamino)-cyclohexyl]-nicotinamide dihydrochloride], the IC50 (table after the classification) is under 50 nM.
As for `O=C(N[C@H]1CC[C@@H](Nc2ccc3ccccc3n2)CC1)c1ccc(Cl)c(F)c1` [Example 3153, 4-Chloro-3-fluoro-N-[cis-4-(quinolin-2-ylamino)-cyclohexyl]-benzamide-hydrochloride], the IC50 (table after the classification) is under 50 nM.
For the molecule `CN(C)c1cc(N[C@H]2CC[C@@H](NC(=O)c3ccc(F)c(F)c3)CC2)nc2ccccc12` [Example 3188, N-[cis-4-(4-Dimethylamino-quinolin-2-ylamino)-cyclohexyl]-3,4-difluoro-benzamide hydrochloride], the IC50 (table after the classification) is under 50 nM.
With `Cc1ccc(S(=O)(=O)c2ncccc2C(=O)N[C@H]2CC[C@@H](Nc3ncc(C)c(N(C)C)n3)CC2)cc1` [Example 3288, N-(cis-4-{[4-(dimethylamino)-5-methylpyrimidin-2-yl]amino}cyclohexyl)-2-[(4-methylphenyl)sulfonyl]nicotinamide], the IC50 was in the range of 50 to 200 nM.
Turning to `CN(C)c1cc(N[C@H]2CC[C@@H](CNC(=O)c3cccnc3Oc3ccccc3)CC2)nc2ccccc12` [Example 3118, N-[cis-4-(4-Dimethylamino-quinolin-2-ylamino)-cyclohexylmethyl]-2-phenoxy-nicotinamide hydrochloride], for the setting “table after the classification”, the IC50 was over 200 nM.
As to `Cc1ccccc1NC(=O)N[C@H]1CC[C@@H](Nc2ncc(C)c(N(C)C)n2)CC1` [Example 3336, N-(cis-4-{[4-(dimethylamino)-5-methylpyrimidin-2-yl]amino}cyclohexyl)-N′-(2-methylphenyl)urea], the IC50 is 50 to 200 nM.
